Experiments:
[1] = system: IFN-γ producing CD4+ and CD8+ T cells; test: Intracellular IFN-γ staining and secreted IFN-γ ELISA of re-stimulated splenocytes from M. avium-infected mice; format: in vivo; conditions: ISS 50 μg/mouse; 10^7 organisms/mouse; three weeks post-infection; anti-CD3/anti-CD28 re-stimulation
Protocol: Mice were injected intradermally (i.d.) with ISS (50 μg/mouse). The control mice received M-ODN (50 μg/mouse) or PBS (50 μl/mouse). All mice were infected with 1×10^7 M. avium. Three weeks after infection, the mice were sacrificed and splenocytes from mice receiving the same treatment were pooled. Intracellular cytokine staining was performed using the Cytofix/Cytoperm kit (Pharmingen) according to the manufacturer's instructions. Briefly, the splenocytes were stimulated with anti-CD3 and anti-CD28 activating antibodies in the presence of monensin to allow intracellular IFN-γ to accumulate for 6 hrs. Next, surface CD4 and CD8 were stained for, the cells were fixed, and the plasma membranes were permeabilized, allowing for intracellular staining with anti-IFN-γ. The cells were analyzed on a FACSCalibur flow cytometer (Becton Dickenson). To study IFN-γ production, splenocytes were incubated with anti-CD3 and anti-CD28 antibodies in vitro for 24 hrs, and these supernatants were assayed for the presence of IFN-γ by sandwich ELISA (Martin-Orozco, et al. (1999) Int. Immun. 11:1111-1118).

[2] = system: indoleamine 2,3-dioxygenase (IDO); test: IDO gene induction in vivo in mice, semi-quantitative RT-PCR; conditions: 50 μg i.v.; after 16 hrs
[3] = system: M. avium; test: Intracellular growth of M. avium in human monocyte-derived macrophages (hMDM) in vitro, CFU assay; format: cell-based, Mycobacterium avium; conditions: for enhancement of the anti-mycobacterial effect of clarithromycin: compared to antibiotic alone
Protocol: A previously studied M. avium strain 13 (Hayashi, et al. (1999) Infect. Immun. 67:3558-3565; Meylan, et al. (1990) Infect. Immun. 58:2564-2568), isolated from an AIDS patient at UCSD, San Diego, Calif., was used in all experiments. The organism was cultured on Middlebrook 7H11 agar (Difco Laboratories, Detroit, Mich.) with OADC enrichment at 37° C. in the presence of 5% CO2 for two weeks. Transparent colonies were selectively picked and further cultured on Middlebrook 7H11 plates for two more weeks. The resulting colonies, which were predominantly transparent (>90%), were then collected and washed two times with phosphate-buffered saline (PBS). The bacteria were finally resuspended in Middlebrook 7H9 broth (Difco Laboratories) and the OD600 of the suspension was adjusted to 0.15-0.2. The suspension was aliquoted and stored at −70° C. until use. The number of organisms/ml of this suspension was determined by the colony forming unit (CFU) assay.
The number of CFU in a given sample was determined by colony counting as described previously (Ogata, et al. (1992) Infect. Immun. 60:4720-4725). Serial 10-fold dilutions of total cell lysates or tissue homogenates were performed in PBS. 10 μl of each dilution were plated on Middlebrook 7H11 plates supplemented with OADC enrichment. The plates were incubated up to 14 days at 37° C. The number of colonies was counted every alternate day from day 10 onwards until no new colonies appeared. This yielded the number of CFU/10 μl. The number of CFU in each well was then calculated.
Monocytes were isolated from normal human buffy coats obtained from the San Diego Blood Bank by Ficoll-Hypaque and Percoll gradient centrifugation (Hayashi, et al. (1997) Infect. Immun. 65:5262-5271). Purity of the monocytes by this method was greater than 70%. The monocytes thus isolated were cultured for five to seven days in Iscove's Modified Dulbecco's Medium (BioWhittaker, Walkersville, Md.) supplemented with 10% normal human serum (Irvine Scientific, Santa Ana, Calif.), 2 mM L-glutamine and 50 units/ml penicillin-streptomycin in Teflon beakers to yield human monocyte-derived macrophages (hMDM). These hMDM were further enriched by adherence to the wells of tissue culture plates before use in experiments. Purity of hMDM after the second adherence assessed by esterase staining was >95%. Viability determined by trypan blue exclusion was >97%.
hMDM (6×10^4) were, adhered to the wells of 96-well tissue culture plates for two hours and non-adherent cells were removed by washing with warm RPMI-1640. Adherent cells were treated with ISS at 3, 10, or 30 μg/ml for 72 h before infection with M. avium. Cells treated with M-ODN at 10 μg/ml or with media alone served as controls. After 72 h, the cells were washed two times and infected with M. avium in RPMI-1640 supplemented with 5% heat-inactivated fetal bovine serum (FBS, Irvine Scientific) at a cell:bacteria ratio of 1:5-1:10. On days 1, 3 and 7 after infection, the total number of colony forming units (CFU) in each well was determined. The supernatant was collected and set aside and the adherent cells were lysed. To account for all the mycobacteria in each well, corresponding lysates and supernatants were combined and used to determine the number of CFU. Experiments were done in triplicate and results were expressed as mean±SD of CFU per well.
Alternatively, 5×10^4 mBMDM or hMDM was treated with ISS for 3 days before infection. Macrophages treated with M-ODN or with media alone served as controls. After 3 days, the cells were infected for 2 hrs with M. avium at a macrophage:bacteria ratio of 2:1 for mBMDM or of 1:10 for hMDM, and subsequently cultured in fresh media without antibiotics. To examine attachment and/or invasion of M. avium, the macrophages were lysed immediately after washing, and the number of bacteria were enumerated by the CFU assay. Intracellular growth of M. avium was determined on days 1, 3, and 7 after infection. […]

[4] = system: M. avium; test: Attachment and/or invasion of M. avium into mBMDM, CFU immediately after infection; format: cell-based, Mycobacterium avium; conditions: vs cells treated with M-ODN or medium alone
Protocol: Alternatively, 5×10^4 mBMDM or hMDM was treated with ISS for 3 days before infection. Macrophages treated with M-ODN or with media alone served as controls. After 3 days, the cells were infected for 2 hrs with M. avium at a macrophage:bacteria ratio of 2:1 for mBMDM or of 1:10 for hMDM, and subsequently cultured in fresh media without antibiotics. To examine attachment and/or invasion of M. avium, the macrophages were lysed immediately after washing, and the number of bacteria were enumerated by the CFU assay. Intracellular growth of M. avium was determined on days 1, 3, and 7 after infection. To account for all the mycobacteria in each group, corresponding lysates were combined and then the number of CFU was determined. To examine the efficacy of anti-mycobacterial treatments, CFU recovered from cells treated with medium alone were considered as 100% growth.
ISS activate macrophages and induce the expression of surface adhesion molecules such as ICAM-1 (Martin-Orozco, et al. (1999) Int. Immun. 11:1111-1118). These molecules may affect the attachment of M. avium or its invasion into mouse bone marrow-derived macrophages (mBMDM). […]

## 5′-TGACTGTGAACGTTCGAGATGA-3′ (SEQ ID NO:1) [ISS]
[1]
  frequency of infection-specific IFN-γ positive CD4+ or CD8+ T cells: did not further increase
[2]
  IDO gene induction in vivo in the liver: not in the liver
  IDO gene induction in vivo in the lungs and spleen: observed
[3]; established infection, infected hMDM treated with ISS 10 μg/ml for 7 days
  decrease of intracellular growth of M. avium: 53%
[3]; hMDM (5×10^4/well) treated 3 days before infection, 7 days post-infection (FIG. 4A)
  inhibition of intracellular growth of M. avium: 91%
[3]; hMDM pretreated 72 h with 3 μg/ml ISS before infection, day 7, vs medium alone or M-ODN
  inhibition of intracellular growth of M. avium: 91.3±1.7%
[3]; hMDM pretreated with 10 or 30 μg/ml vs 3 μg/ml ISS
  growth inhibition at the higher concentrations of ISS tested: no further increase in growth inhibition
[3]; hMDM, ISS (10 µg/mL) immediately after infection (0 day), CFU at day 7, vs medium alone
  inhibition of growth of M. avium: 53±18%
[3]; hMDM, ISS (10 µg/mL) one day after infection (+1 day), CFU at day 7, vs medium alone
  inhibition of growth of M. avium: 36±16%
[3]; hMDM, ISS (10 µg/mL) pretreatment three days before infection (−3 days), CFU at day 7, vs medium alone
  inhibition of intracellular growth of M. avium: 51±4%
[3]; infected hMDM, ISS 10 μg/ml alone, day 7
  inhibition of intracellular growth of M. avium: 38±7%
[3]; infected hMDM, ISS 10 μg/ml with 1 μg/ml clarithromycin, day 7
  enhancement of the anti-mycobacterial effect of clarithromycin: 89±5%
[3]; infected hMDM, ISS 10 μg/ml with 4 μg/ml clarithromycin, day 7
  enhancement of the anti-mycobacterial effect of clarithromycin: 63±12%
[4]
  CFU recovered immediately from cells treated before infection (attachment/invasion): not significantly different

From patent US6552006B2, “Immunomodulatory polynucleotides in treatment of an infection by an intracellular pathogen” (The Regents of the University of California, priority 2000, dated 2003)
